Experimental data reported in a melting point compilation (Tetko et al.; mined from patent text by program, amines drawn as free bases though some values may be those of a salt).

SMILES	melting point [°C]
S=C=Nc1ccc(-c2nc(-c3ccccn3)no2)cc1	145 to 146
Cc1ccc(S(=O)(=O)NC2N=C(c3ccccc3F)c3ccccc3NC2=O)cc1 (racemic)	215 to 216
CCOc1cc2ncc(C#N)c(Nc3cccc(Br)c3)c2cc1OCC	173 to 175
COc1ccc(N(N)Cc2ccc(Cl)cc2)cc1	55
COc1cc(NC(=O)Nc2ccccc2)c(O)c(C(C)(C)C)c1	147 to 149
CC(C)c1cccc(C(C)C)c1NC(=O)C(Cc1ccc(OCc2ccccc2)cc1)NC(=O)CC(C)(C)C (configuration not stated)	209 to 212
COCOc1ccc(C(=O)c2ccc(OCc3nc(-c4ccccc4)oc3C)cc2)c(O)c1	105 to 107
Nc1ncc2[nH]c3ccccc3c2n1	258 to 260
COc1ccc2[nH]c3c(C(=O)Nc4ccc(CCCCN(C)CCc5ccc(OC)c(OC)c5)cc4)cccc3c(=O)c2c1	155
COC(=O)c1sc(C)c2[nH]c(C(F)(F)C(F)(F)F)nc12	156 to 157
O=c1[nH]c2sc3ccc(Br)cc3c2[nH]c1=O	> 320
OCCCCCCCCOc1ccc2ccccc2c1	67 to 69
O=c1[nH][nH]c2c1c(O)nc1cc(Cl)c(Cl)cc12	> 350
CC(C)c1cc(C(C)C)c(CC(=O)NS(=O)(=O)Oc2c(C(C)C)cc(C=O)cc2C(C)C)c(C(C)C)c1	71 to 76
CSc1ncnn1C[C@]1(c2ccc(F)cc2)O[C@@H]1c1cccc(Cl)c1F (relative stereo)	88
COc1cc(/C=C2/C(=O)N(C)C(=O)/C2=C/c2ccccc2)cc(OC)c1OC	131 to 133
COC(=O)Nc1cc(Oc2ccc3c(C(=O)Nc4cccc(C(F)(F)F)c4)cccc3c2)ccn1	230 to 232
CCCCC(COc1ccc(-c2cccc(CC#N)c2)cc1)N(O)C=O (configuration not stated)	99 to 101
Cc1c(-c2ccccc2)nn(C(C)(C)C(=O)N(C)C)c1Cl	96 to 99
Cn1c(-c2ccccc2Cl)nnc1-c1ccccc1Cl	140
CCCCCCCCCCCCCCS(=O)(=O)N[C@H]1CCCNC(=O)C1	100 to 101
CCC1N=C(c2ccccc2Cl)c2cc(CC(=O)OC)sc2NC1=O (configuration not stated)	202 to 204
FC1(c2cn(-c3ccc(Br)cc3)nn2)CN2CCC1CC2 (configuration not stated)	127
OCCc1cc(C(O)CNCCCCCOCCCCc2ccccc2)ccc1O (configuration not stated)	65 to 67
CC(C)(C)C(=O)NC#N	112 to 118

SMILES	melting point [°C]
C/C(=C\c1ccc(C(=O)O)cc1)c1ccc2c(c1)C(C)(C)C(=O)CC2(C)C	260 to 261
Cc1cc(Cn2nnn(-c3cc(C(F)(F)F)cc(C(F)(F)F)c3)c2=O)ccc1N	129 to 130
CC(CNC(=O)[C@@H]1CSC(=O)N1)O[N+](=O)[O-] (some centres not stated)	70 to 72
C(#Cc1ccncc1)c1ccccc1	51 to 53
CCn1c2ccc(C=O)cc2c2ccc3ccccc3c21	135 to 140
CC(OC(=O)OC1CC(=O)NC1=O)OC(=O)C(C)C (configuration not stated)	50 to 54
NC(N)C(=O)c1ccccc1	104 to 107
CCOC(=O)CO/N=C(\C(=O)Sc1nc2ccccc2s1)c1cc[nH]n1	112 to 114
N=c1n(Cc2ccc(F)c(F)c2)c2ccc(Br)cc2n1Cc1ccc(F)c(F)c1	88 to 89.5
Cc1cc(Nc2nc(Cl)nc(Nc3cc(C)c(O)c(C(C)(C)C)c3)n2)cc(C(C)(C)C)c1O	214
Cn1c(C(F)(F)F)cc(=O)n(-c2cc(OCOc3ccc(Cl)cc3)c(Cl)cc2F)c1=O	120 to 122
O=C(O)CCCCCC=C(c1ccccc1)c1ccccc1	88 to 89
C[C@H](c1ncnc(Sc2ccc(Cl)cc2)c1F)[C@@](O)(Cn1cncn1)c1ccc(F)cc1F	158 to 160
CCC(CC)C(=O)Nc1nc(C)co1	106
CCOC(=O)c1ncn2c1CNC(=O)c1cc(OC)ccc1-2	240
CCN(C)C(=N)N[N+](=O)[O-]	124 to 125
CC1(C)C(=O)Nc2cc3c(cc21)OC(O)N3 (configuration not stated)	297 to 299
Cc1ccc(CCCO)c(NCc2ccc3nc(NCCCN4CCOCC4)n(Cc4cccc5c4ncn5C)c3c2)c1	198
Cc1[nH]cc2c(=O)n(-c3ccc(Cl)cc3)nc-2c1-c1cccc(NCc2cccnc2)c1	284 to 287
CCOc1csc2c(O)c(SC)cnc12	180 to 183
CC12CCC1(C)C(=O)OC2=O (configuration not stated)	84 to 86
COc1cc2c(cc1C(F)(F)F)N(C(=O)Nc1cncc(Br)c1)CC2	220 to 222
COc1cc2c(Nc3ccc(Sc4nccn4C)c(Cl)c3)c(C#N)cnc2cc1-c1csc(CN2CCOCC2)c1	238 to 240
COc1cccc(C#Cc2ccncc2)c1	33 to 35

The remaining lines, values ahead:

melting point [°C]	SMILES
195 to 198	O=C(O)C1CCc2c(sc3cc(F)ccc23)C1 (configuration not stated)
124 to 126	CCn1cc(C2CCC3(CC2)OCCO3)c2cc(C#N)ccc21
142 to 144	CC(C)(C)c1ccc(C(O)CCCN2CCC(C3(O)c4ccccc4CCc4ccccc43)CC2)cc1 (configuration not stated)
179 to 183	Cc1c(F)cc(C(=O)NCC2CC2)cc1-c1ccc(C(=O)NCC(C)(C)C)cc1C(=O)Nc1nccs1
127 to 128	C/C=C/CNC(=O)N1CC(Oc2cccc(C(F)(F)F)c2)C1
167 to 168	Cc1ccc(CNC(=O)C2=C(C(=O)Nc3ccc(Br)cc3F)CCCC2)cc1
128 to 130	CC(C)(C)N1C[C@H](O)C[C@H]1C(=O)NC(=O)OCc1ccccc1
137 to 138	CN1C(=O)CC[C@]2(C)c3ccc(SCc4ccccc4)cc3CC[C@@H]12
175 to 177	Cc1cc(-n2ccc(OCc3ccccc3)cc2=O)sc1C(=O)NCc1ccc(F)cc1
79 to 83	Oc1ccc(OCc2nnc(C3CC3)s2)cc1
264	O=C(NCCCCN1CCC(c2cccc3ccccc23)CC1)c1ccc(NC(=O)c2ccc(Cl)cc2)cc1
134 to 138	O=C(O)CS(=O)(=O)c1cccc(C(=O)C2CCC3(CCNCC3)CC2)c1
81 to 83	O=C(OC1CCCCC1=O)c1ccccc1 (configuration not stated)
92 to 94	CCNC(=O)[C@@H]1C[C@H](SCc2ccc(OC)cc2)CN1C(=O)OC(C)(C)C
65 to 66	COc1ccc(Nc2cccc(Cl)c2N)cc1
79 to 80	CCOC(CC(=O)Nc1cc(CCNC(=O)C(F)(F)F)ccc1OC)OCC
106 to 108	CC(COc1ccccc1)C1SC(=O)NC1=O (configuration not stated)
91 to 92	O=C(Oc1ccc(F)cc1Cl)Oc1ccc(F)cc1Cl
131	O=C(NC1CCc2cc3c(cc2C1)OCC3)C(F)(F)F (configuration not stated)
75 to 90	Nc1cncc(O)c1CCCOc1cccnc1Oc1cccc(Cl)c1
> 210	O=C1N(CO)c2cccc(Cl)c2C1(CO)c1cc2c(cc1O)OCO2 (configuration not stated)
136 to 137	CCOC(=O)C1=C(C)Nc2ccnc(OC(C)C)c2C1c1ccccc1 (configuration not stated)
222 to 227	CCNC1CN(c2c(F)cc3c(=O)c(C(=O)O)cn(C4CC4)c3c2F)C1
135 to 136	CC(=O)n1ncc2c(O)ccc(C)c21
166 to 167	O=[N+]([O-])c1ccc2nc(-c3ccccc3)cc(Cl)c2c1
226 to 228	CNC(=O)c1cc2c(Oc3ccc(C(=O)NCCN4CCOCC4)cc3)cncc2s1
180	COc1cccc(OC)c1-c1ccc(C[C@H](NC(=S)c2c(Cl)cccc2Cl)C(=O)O)cc1

melting point [°C]	SMILES
240	Nc1nc2cc(Br)ccc2c2c1nc(CNC(=O)C1CC1)n2CC1CCOCC1
233 to 234	Cc1cc2c(c3ccc(=O)[nH]c13)OC(CNC(=O)CCNC(=O)OCc1ccccc1)C2 (configuration not stated)
234 to 236	CCOC(=O)c1cnn2c1c(N1CCN(C)CC1)nc1ccccc12
183 to 185	CC1=CC(c2cccc(Cl)c2)C2=C(CC(C)(C)CC2=O)N1 (configuration not stated)
144 to 145	Cc1ccc(C(=O)c2cc(-c3ccncc3)c(N3CCOCC3)s2)cc1
> 300	Cc1nc(-c2ccc(C(=O)O)cc2)sc1C(=O)O
168 to 170	CN1C(O)=C(C(=O)Nc2ccccc2Cl)c2ccsc2S1(=O)=O
36 to 37	Cc1sc(-c2cccs2)cc1Br
139 to 144	C[C@@H]1S[C@@H](C(=O)Nc2ccc(CN3C(=O)CNC3=O)cc2)Cc2cc3c(cc2C1=O)OCO3
142 to 145	C#CCOCC(=O)Nc1ccccc1
147 to 149	Nc1ccc(Cl)c(C(=O)NCCC23CC4CC(CC(C4)C2)C3)c1
130	O=CNC1CCc2ccccc2N(C=O)C1 (configuration not stated)
254 to 257	CN1CCCc2cc(C=C3SC(=O)NC3=O)ccc21
266 to 268	O=C(O)c1cc(O)c(C(=O)c2ccc(Cl)cc2)c([N+](=O)[O-])c1
147 to 148	COC(=O)Cc1csc2c(O)cccc12
147	CC(C)CCNC(=O)c1ccccc1-c1ccccc1CNC(=O)c1ccccc1
142 to 143	COc1ccc(CC(=O)c2ccc(OC)c(F)c2)cc1
80 to 81	O=C(N(Cc1cccnc1)c1ccc(Cl)cc1)C(F)(F)F
65 to 75	CC(C)(C)OC(=O)N1CCC(CN2C(=O)C3(COc4cc5c(cc43)C(C)(C)CO5)c3ccccc32)CC1 (configuration not stated)
180 to 186	COc1ccc(C(=NO)c2c(F)cccc2F)c(Cl)c1Cl
162 to 164	O=S1(=O)N=Cc2cccc(Cl)c21
167 to 168	O=C(CN1CCNC1=O)N1CCC(C2c3ncc(Br)cc3CCc3cc(Cl)cc(Br)c32)CC1 (single isomer, unassigned; (+))
197 to 198	Nc1nc2[nH]c(CCCCC#Cc3ccc(C(=O)N[C@@H](CCC(=O)O)C(=O)O)s3)cc2c(=O)[nH]1
143 to 147	OC(c1cccc(C(F)(F)F)c1)C1CCN(CCc2ccccc2)CC1 (configuration not stated)
133 to 135	CCOCn1c(Br)c(Br)c(S(=O)(=O)C(F)(F)F)c1-c1ccc(Cl)cc1
151 to 153	CC(=O)SCC12CCC3(CC1=CCC1C2CCC2(C)C(C(C)=O)CCC12)OCCO3 (configuration not stated)
